# Patent US11716994B2, “Combinations of Yersinia entomophaga and pesticides or other substances” (priority 2017, dated 2023)
# Values joined by “and” are separate entries in the source; they are usually repeats but may differ in a detail not shown here. Identical values can stand only once. Like-named read-outs stand apart in the source and are kept apart here.
# Columns and labels:
# fall armyworm = test: Leaf disk mortality assay, Y. entomophaga cells with chemical insecticides; conditions: for LT50 (95% confidence intervals) / LT50 (95% confidence intervals) in days: 3rd instar; for LT50 Chem. / % Mort. Chem.: fall armyworm; for mortality at 19 µg/mL / mortality at 300 µg/mL: Spodoptera frugiperda, foliar
# diamondback moth = test: whole plant or invertebrate; conditions: for LT50 Chem. / % Mort. Chem.: Diamondback moth; for LT50 (95% confidence intervals) in days: Probit analysis
# Excerpt: (§1) These were set to dry for 1 hr.
# as §1
# These were set to dry for 1 hr. Cabbage disks were then dipped in either 1% Luria broth (LB) media solution (controls and thiacloprid alone treatments) or in 1% cell free filtrate from a culture Y. entomophaga isolate O24G3R (Y. entomophaga alone or in combination with thiacloprid treatments).
# black cutworm = test: Leaf disk mortality assay, Y. entomophaga cells with chemical insecticides; conditions: black cutworm
compound,measurement,setting,value
CC1(C)[C@H](C(=O)O[C@H](C#N)c2cccc(Oc3ccccc3)c2)[C@@H]1/C=C(\Cl)C(F)(F)F (racemic) [λ-cyhalothrin],LT50 (95% confidence intervals),"fall armyworm; λ-cyhalothrin […], isolate O43NEW 1×10^5 cfu/mL",5.20 days
same,LT50 Chem.,fall armyworm; λ-cyhalothrin alone […],5.20 days
CCOP(=S)(OCC)Oc1nc(Cl)c(Cl)cc1Cl [Chlorpyrifos],LT50 (95% confidence intervals),"diamondback moth; 2nd instar diamondback moth, chlorpyrifos 3.8 mg/L, O43NEW filtrate 1%, alone or combined",3.72 days
same,LT50 Chem.,diamondback moth; chlorpyrifos 3.8 mg/L,3.72 days
same,% Mort. Chem.,"diamondback moth; chlorpyrifos 3.8 mg/L, 4 DAT",74%
same,mortality at 3.8 µg/mL,"diamondback moth; Plutella xylostella, foliar, 96 h, read-out: % Mortality (4DAT), 2nd instar diamondback moth, chlorpyrifos 3.8 mg/L, O43NEW filtrate 1%, alone or combined, 4 DAT, Abbott's corrected",74%
same,LT50 (95% confidence intervals) in days,"fall armyworm; chlorpyrifos 19 mg/L, isolate O24G3R 1×10^5 cfu/mL",8.02 (7.22-8.91) days
same,LT50 (95% confidence intervals) in days,"fall armyworm; chlorpyrifos 19 mg/L, isolate O24KEK 1×10^5 cfu/mL",8.02 (7.22-8.91) days
same,LT50 (95% confidence intervals) in days,"fall armyworm; chlorpyrifos 19 mg/L, isolate O43NEW 1×10^5 cfu/mL",6.83 (6.09-7.66) days
same,LT50 (95% confidence intervals),"fall armyworm; chlorpyrifos 19 mg/L, isolate O333A4 1×10^5 cfu/mL",8.02 days
same,mortality at 19 µg/mL,"fall armyworm; 72 h, read-out: % Mortality (3DAT), 3rd instar, chlorpyrifos 19 mg/L, isolate O43NEW 1×10^5 cfu/mL",40%
same,mortality at 19 µg/mL,"fall armyworm; 96 h, read-out: % Mortality (4DAT), 3rd instar, chlorpyrifos 19 mg/L, isolate O43NEW 1×10^5 cfu/mL",45%
same,mortality at 19 µg/mL,"fall armyworm; 96 h, read-out: % Mortality (4DAT), 3rd instar, chlorpyrifos 19 mg/L, isolate O333A4 1×10^5 cfu/mL",35%
same,mortality at 19 µg/mL,"fall armyworm; 120 h, read-out: % Mortality (5DAT), 3rd instar, chlorpyrifos 19 mg/L, isolate O24G3R 1×10^5 cfu/mL",35%
same,mortality at 19 µg/mL,"fall armyworm; 120 h, read-out: % Mortality (5DAT), 3rd instar, chlorpyrifos 19 mg/L, isolate O333A4 1×10^5 cfu/mL",35%
same,mortality at 19 µg/mL,"fall armyworm; 144 h, read-out: % Mortality (6DAT), 3rd instar, chlorpyrifos 19 mg/L, isolate O24G3R 1×10^5 cfu/mL",35%
same,mortality at 19 µg/mL,"fall armyworm; 144 h, read-out: % Mortality (6DAT), 3rd instar, chlorpyrifos 19 mg/L, isolate O24KEK 1×10^5 cfu/mL",35%
same,mortality at 19 µg/mL,"fall armyworm; 144 h, read-out: % Mortality (6DAT), 3rd instar, chlorpyrifos 19 mg/L, isolate O333A4 1×10^5 cfu/mL",35%
same,mortality at 19 µg/mL,"fall armyworm; 168 h, read-out: % Mortality (7DAT), 3rd instar, chlorpyrifos 19 mg/L, isolate O24G3R 1×10^5 cfu/mL",40%
same,mortality at 19 µg/mL,"fall armyworm; 168 h, read-out: % Mortality (7DAT), 3rd instar, chlorpyrifos 19 mg/L, isolate O24KEK 1×10^5 cfu/mL",40%
same,mortality at 19 µg/mL,"fall armyworm; 168 h, read-out: % Mortality (7DAT), 3rd instar, chlorpyrifos 19 mg/L, isolate O333A4 1×10^5 cfu/mL",40%
same,% Mort. Chem.,"fall armyworm; Chlorpyrifos 19 mg/L, 3 DAT",40%
same,% Mort. Chem.,"fall armyworm; Chlorpyrifos 19 mg/L, 5 DAT",35%
same,% Mort. Chem.,"fall armyworm; Chlorpyrifos 19 mg/L, 6 DAT (row with O24KEK)",35%
same,% Mort. Chem.,"fall armyworm; Chlorpyrifos 19 mg/L, 6 DAT (row with O333A4)",35%
same,LT50 Chem.,fall armyworm; Chlorpyrifos alone 19 mg/L,6.83 days and 8.02 days
Cc1cc(C(F)(C(F)(F)F)C(F)(F)F)ccc1NC(=O)c1cccc(I)c1C(=O)NC(C)(C)CS(C)(=O)=O [Flubendiami-de],LT50 Chem.,black cutworm; Flubendiami-de alone 0.2 mg/L,4.83 days
same,LT50 Chem.,black cutworm; Flubendiami-de alone 0.59 mg/L,4.99 days
CCOC(=O)OC1=C(c2cc(C)ccc2C)C(=O)N[C@]12CC[C@@H](OC)CC2 [Spirotetramat],LT50 (95% confidence intervals) in days,"diamondback moth; 2nd instar diamondback moth, spirotetramat 30 mg/L, 1% O24G3R filtrate",23.41 (19.1-28.86) days
same,LT50 (95% confidence intervals) in days,"diamondback moth; 2nd instar diamondback moth, spirotetramat 30 mg/L, 1% O43NEW filtrate",21.02 (16.86-26.76) days
same,% Mort. Chem.,"diamondback moth; spirotetramat 30 mg/L, 6 DAT, O43NEW experiment",11%
same,% Mort. Chem.,"diamondback moth; spirotetramat 30 mg/L, 10 DAT, O24G3R experiment",0%
same,LT50 Chem.,"diamondback moth; spirotetramat 30 mg/L, O24G3R experiment",23.41 days
same,LT50 Chem.,"diamondback moth; spirotetramat 30 mg/L, O43NEW experiment",21.02 days
same,mortality at 30 µg/mL,"diamondback moth; Plutella xylostella, foliar, 96 h, read-out: % Mortality (4DAT), diamondback moth, spirotetramat 30 mg/L, 1% O43NEW filtrate, 4 DAT, Abbott's corrected",5%
same,mortality at 30 µg/mL,"diamondback moth; Plutella xylostella, foliar, 120 h, read-out: % Mortality (5DAT), diamondback moth, spirotetramat 30 mg/L, 1% O43NEW filtrate, 5 DAT, Abbott's corrected",5%
same,mortality at 30 µg/mL,"diamondback moth; Plutella xylostella, foliar, 144 h, read-out: % Mortality (6DAT), diamondback moth, spirotetramat 30 mg/L, 1% O24G3R filtrate, 6 DAT, Abbott's corrected",0%
same,mortality at 30 µg/mL,"diamondback moth; Plutella xylostella, foliar, 144 h, read-out: % Mortality (6DAT), diamondback moth, spirotetramat 30 mg/L, 1% O43NEW filtrate, 6 DAT, Abbott's corrected",11%
same,mortality at 30 µg/mL,"diamondback moth; Plutella xylostella, foliar, 168 h, read-out: % Mortality (7DAT), diamondback moth, spirotetramat 30 mg/L, 1% O43NEW filtrate, 7 DAT, Abbott's corrected",16%
same,mortality at 30 µg/mL,"diamondback moth; Plutella xylostella, foliar, 240 h, read-out: % Mortality (10DAT), diamondback moth, spirotetramat 30 mg/L, 1% O24G3R filtrate, 10 DAT, Abbott's corrected",0%
same,mortality at 30 µg/mL,"diamondback moth; Plutella xylostella, foliar, 264 h, read-out: % Mortality (11DAT), diamondback moth, spirotetramat 30 mg/L, 1% O24G3R filtrate, 11 DAT, Abbott's corrected",0%
same,mortality at 30 µg/mL,"diamondback moth; Plutella xylostella, foliar, 336 h, read-out: % Mortality (14DAT), diamondback moth, spirotetramat 30 mg/L, 1% O24G3R filtrate, 14 DAT, Abbott's corrected",0%
same,LT50 (95% confidence intervals) in days,"fall armyworm; spirotetramat 300 mg/L, isolate O43NEW 1×10^5 cfu/mL",10.29 (9.39-11.29) days
same,mortality at 300 µg/mL,"fall armyworm; 144 h, read-out: % Mortality (6DAT), 3rd instar, spirotetramat 300 mg/L, isolate O43NEW 1×10^5 cfu/mL",6%
same,mortality at 300 µg/mL,"fall armyworm; 168 h, read-out: % Mortality (7DAT), 3rd instar, spirotetramat 300 mg/L, isolate O43NEW 1×10^5 cfu/mL",13%
same,% Mort. Chem.,"fall armyworm; Spirotetramat 300 mg/L, 6 DAT",6%
same,LT50 Chem.,fall armyworm; Spirotetramat alone 300 mg/L,10.29 days
